{
  "source": "paper PMC7495385",
  "about": "“Role of Escape Mutant-Specific T Cells in Suppression of HIV-1 Replication and Coevolution with HIV-1” (Journal of Virology, 2020)",
  "format_in_all_cases": "cell-based, human",
  "key": {"[1]": {"tested_on": "HLA-B*52:01-restricted CD8+ T cells (PBMCs of HIV-1 subtype B-infected individuals)", "assay": "IFN-γ ELISPOT assay, T cell responses to peptides in HLA-B*52:01+ individuals", "conditions": "positive >200 spots/10^6 CD8+ T cells", "method": "Ex vivo gamma interferon (IFN-γ) ELISPOT assays were performed as previously described ([6], [49]). The number of spots for a T cell response to each peptide was finally calculated by subtracting the number of spots in wells without peptides. The mean + 3 standard deviations (SD) of the spot number of samples from 13 HIV-1 naive individuals for the peptides was 162 spots/10^6 CD8^+ T cells ([6], [49]). Therefore, we defined >200 spots/10^6 CD8^+ T cells as positive responses."}, "[2]": {"tested_on": "RI8-6T-specific T cell clone 2F (KI-855)", "assay": "ICS assay, 721.221-B*52:01 cells prepulsed with peptide, clone 2F from KI-855", "conditions": "RI8-6T-specific T cell clone 2F from KI-855; 2 h, then brefeldin A 4 h at 37°C; IFN-γ; means with SD (n = 3)", "source_text": "(§1) PBMCs were stained with PE- or APC-conjugated tetramers, FITC-conjugated anti-CD3 (Dako, Glostrup, Denmark), Pacific blue-conjugated anti-CD8 MAb (BD Biosciences), and 7-AAD (BD Pharmingen), after which CD3^+ CD8^+ 7AAD^− tetramer^+ T cells were sorted in U-bottomed 96-well microtiter plates (1 cell/well for T cell clones and 100 to 500 cells/well for T cell lines) by using a FACSAria (BD Biosciences). The sorted cells were stimulated with the corresponding epitope peptide and cultured as previously described ([51]). After 2 to 3 weeks in culture, epitope-specific CD8^+ T cells were used in functional assays after their purity had been confirmed by flow cytometry analysis using tetramers.\n(§2) 721.221 cells prepulsed with HIV-1 epitope peptide or 721.221 cells infected with HIV-1 were cocultured with T cell clones or lines in a 96-well plate for 2 h at 37°C. Brefeldin A (10 μg/ml) was then added, and the cells were incubated further for 4 h at 37°C. The cells were then fixed with 4% paraformaldehyde and incubated in permeabilization buffer (0.1% saponin–10% fetal bovine serum [FBS]–phosphate-buffered saline [PBS]), after which they were stained with APC-conjugated anti-CD8 MAb (Dako, Denmark) followed by FITC-conjugated anti-IFN-γ MAb (BD Biosciences). The percentage of IFN-γ-producing cells among the CD8^+ T cell population was determined by use of the FACSCanto II."}, "[3]": {"tested_on": "cross-reactive T cell clone 8F (KI-855)", "assay": "ICS assay, 721.221-B*52:01 cells prepulsed with peptide, clone 8F from KI-855", "conditions": "cross-reactive clone 8F from KI-855; 2 h, then brefeldin A 4 h at 37°C; IFN-γ; means with SD (n = 3)", "source_text": "as §1, §2"}, "[4]": {"tested_on": "RI8-6T-specific T cell lines (KI-906)", "assay": "ICS assay, 721.221-B*52:01 cells prepulsed with peptide, T cell lines from KI-906", "conditions": "two RI8-6T-specific T cell lines from KI-906 (Nov 2010, Aug 2013); 2 h, then brefeldin A 4 h at 37°C; IFN-γ+ of CD8+ T cells; means with SD (n = 3)", "source_text": "as §1, §2"}},
  "data": [
    {"sequence": "RMYSPTSI [RI8-6T]", "values": [
      {"measurement": "number of individuals with epitope-specific T cells detected", "setting": "[1]; 12 HLA-B*52:01+ individuals infected with Gag280V virus, IFN-γ ELISPOT", "result": 4, "unit": "individuals"},
      {"measurement": "T cell response to peptide in individual KI-809", "setting": "[1]; PBMCs from wild-type virus-infected KI-809, ELISPOT", "result": "strong T cell response"},
      {"measurement": "recognition of 721.221-B*52:01 cells prepulsed with peptide", "setting": "[2]", "result": "effectively recognized"},
      {"measurement": "recognition of 721.221-B*52:01 cells prepulsed with peptide", "setting": "[3]", "result": "effectively recognized"},
      {"measurement": "recognition of 721.221-B*52:01 cells prepulsed with peptide", "setting": "[4]", "result": "recognized"}
    ]}
  ]
}
